The values below come from US11987404B2, “Method for filling containers with a powder” (NTC S.R.L., priority 2019, dated 2024).

Type in all cases: physicochemical
The nature of data set [1]: Accelerated stability 40° C./75% RH in heat-sealed envelope. The note with it: accelerated stability conditions. The procedure: (§1) The stability of the mannitol in the form of powder object of the present invention was tested, housed inside a heat-sealed envelope in compostable material. 50 grams of said powder were stored for 6 months at 40° C./75% RH (Test 1) and for 6 months at 25° C./60% RH (Test 2). Checks were made of the parameters indicated in Tables 8 and 9 following the times T0-T6 identified as: T0=moment of insertion of the air-conditioned environment, T1=after one month from the moment T0, T2=after two months from the moment T0, T3=after three months from the time T0, T4=after four months from the time T0, T5=after five months from the time T0, T6=after six months from the time T0.

Data set [2] can be described thus: Long term stability 25° C./60% RH in heat-sealed envelope. The note with it: long-term stability in the climatic area II. The method, then: as §1
Data set [3] can be described thus: Dissolution study of mannitol powder in non-carbonated commercial waters. The note with it: 150 g of mannitol in 900 ml of water, weakly acidic or neutral pH. The text has this:
The solubility of the mannitol powder was then studied in the following three types of non-carbonated commercial waters: • Sangemini: PH at source 6.2; • Antica Fonte Boario: PH at source 7.0; • Panna Toscana: pH at source 8.0.

Data set [4] can be described thus: Bulk density (Ph. Eur. 2.2.42). The procedure:
As regards the bulk density outlined above, in particular the poured bulk density, such parameter is measured according to the European Pharmacopoeia reference standard (Ph. EUR.), current edition 2.2.42, in force at the priority date of this patent application. In the context of the present invention, the expression “bulk” implies that the powder density value is calculated in a manner formally analogous to an absolute density (such as for a solid body or for a liquid). However, since a powder has empty inter-particle spaces, the total volume occupied by the powder (i.e. its outer bulk), thus including the inter-particle spaces between the various particles, should be taken into account when evaluating bulk density. More precisely, according to the aforementioned standard, a 100 ml class A graduated flask is filled and brought to volume with the powder particles, after which the bulk density is calculated as the ratio between the weight of the powder inside the flask and the volume (100 ml) occupied by that weight of the powder particles. Mannitol powder is a poorly flowing powder, which has a certain tendency, just like all fine powders, to agglomerate under pressure. […]

SMILES strings stand for the structures.

In the case of `OC[C@@H](O)[C@@H](O)[C@H](O)[C@H](O)CO` [mannitol, Mannitol], the “measured parameters over the test” value in data set [1] and in data set [2] was “remained stable” throughout. Moreover, in data set [3], the complete dissolution time result is reported as “more than 6 minutes”. Moreover, the transient density entry in data set [4] (after passing through 3 mm mesh of the sieve shaker, measured in the laboratory) is on record as “about 0.73 g/ml”. In addition, the poured bulk density entry in data set [4] (coherent mass before the drum centrifugal sieve shaker) is reported as “about 0.60 g/ml”.
